According to BindingDB's records for doi:10.1124/jpet.301.1.37 (National Institutes of Health, 2002):
“And” between values parts separate entries of the source, which are not always exact repeats. Equal values may be shown once.

Tests used:
[1] = target: T1, VIP peptides (Cavia porcellus, UniProt P04566)
T1 sequence (P04566 whole entry): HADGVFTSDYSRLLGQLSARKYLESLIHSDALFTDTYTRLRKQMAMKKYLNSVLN

[2] = target: T2, VIP peptides (Rattus norvegicus, UniProt P01283)
T2 sequence (P01283 whole entry): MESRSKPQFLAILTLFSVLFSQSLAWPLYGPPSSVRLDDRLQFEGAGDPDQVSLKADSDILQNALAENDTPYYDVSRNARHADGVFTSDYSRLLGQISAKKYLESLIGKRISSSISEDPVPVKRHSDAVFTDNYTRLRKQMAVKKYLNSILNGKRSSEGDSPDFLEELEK

[3] = target: T3, VIP peptides (Homo sapiens, UniProt P01282)
T3 sequence (P01282 whole entry): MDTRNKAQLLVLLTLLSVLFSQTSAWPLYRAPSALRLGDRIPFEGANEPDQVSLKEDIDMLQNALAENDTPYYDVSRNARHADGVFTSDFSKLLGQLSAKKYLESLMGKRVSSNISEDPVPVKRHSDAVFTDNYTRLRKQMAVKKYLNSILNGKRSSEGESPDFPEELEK

Compound | Ki [1] [µM] | Ki [2] | Ki [3]
CC[C@H](C)[C@H](NC(=O)[C@H](CO)NC(=O)[C@H](CC(N)=O)NC(=O)[C@H](CC(C)C)NC(=O)[C@H](Cc1ccc(O)cc1)NC(=O)[C@H](CCCCN)NC(=O)[C@H](CCCCN)NC(=O)[C@@H](NC(=O)[C@H](C)NC(=O)[C@H](CCSC)NC(=O)[C@H](CCC(N)=O)NC(=O)[C@H](CCCCN)NC(=O)[C@H](CCCN=C(N)N)NC(=O)[C@H](CC(C)C)NC(=O)[C@H](CCCN=C(N)N)NC(=O)[C@@H](NC(=O)[C@H](Cc1ccc(O)cc1)NC(=O)[C@H](CC(N)=O)NC(=O)[C@H](CC(=O)O)NC(=O)[C@@H](NC(=O)[C@H](Cc1ccccc1)NC(=O)[C@@H](NC(=O)[C@H](C)NC(=O)[C@H](CC(=O)O)NC(=O)[C@@H](CO)NC(=O)[C@@H](N)Cc1cnc[nH]1)C(C)C)[C@@H](C)O)[C@@H](C)O)C(C)C)C(=O)N[C@@H](CC(C)C)C(=O)N[C@@H](CC(N)=O)C(N)=O [VIP [D-Ser2]] | 0.0081 | 0.0042 µM and 0.0151 µM and 0.0389 µM | 0.0019 µM and 0.0182 µM and 0.0159 µM
CC[C@H](C)[C@H](NC(=O)[C@H](CO)NC(=O)[C@H](CC(N)=O)NC(=O)[C@H](CC(C)C)NC(=O)[C@H](Cc1ccc(O)cc1)NC(=O)[C@H](CCCCN)NC(=O)[C@H](CCCCN)NC(=O)[C@@H](NC(=O)[C@H](C)NC(=O)[C@H](CCSC)NC(=O)[C@H](CCC(N)=O)NC(=O)[C@H](CCCCN)NC(=O)[C@H](CCCN=C(N)N)NC(=O)[C@H](CC(C)C)NC(=O)[C@H](CCCN=C(N)N)NC(=O)[C@@H](NC(=O)[C@H](Cc1ccc(O)cc1)NC(=O)[C@H](CC(N)=O)NC(=O)[C@H](CC(=O)O)NC(=O)[C@H](NC(=O)[C@H](Cc1ccccc1)NC(=O)[C@@H](NC(=O)[C@H](C)NC(=O)[C@H](CC(=O)O)NC(=O)[C@H](CO)NC(=O)[C@@H](N)Cc1cnc[nH]1)C(C)C)[C@H](C)O)[C@@H](C)O)C(C)C)C(=O)N[C@@H](CC(C)C)C(=O)N[C@@H](CC(N)=O)C(N)=O [VIP [D-Thr7]] | 0.2 | 0.0871 µM and 0.324 µM and 0.437 µM | 0.162 µM and 0.288 µM and 0.214 µM
CC[C@H](C)[C@H](NC(=O)[C@H](CO)NC(=O)[C@H](CC(N)=O)NC(=O)[C@H](CC(C)C)NC(=O)[C@@H](Cc1ccc(O)cc1)NC(=O)[C@H](CCCCN)NC(=O)[C@H](CCCCN)NC(=O)[C@@H](NC(=O)[C@H](C)NC(=O)[C@H](CCSC)NC(=O)[C@H](CCC(N)=O)NC(=O)[C@H](CCCCN)NC(=O)[C@H](CCCN=C(N)N)NC(=O)[C@H](CC(C)C)NC(=O)[C@H](CCCN=C(N)N)NC(=O)[C@@H](NC(=O)[C@H](Cc1ccc(O)cc1)NC(=O)[C@H](CC(N)=O)NC(=O)[C@H](CC(=O)O)NC(=O)[C@@H](NC(=O)[C@H](Cc1ccccc1)NC(=O)[C@@H](NC(=O)[C@H](C)NC(=O)[C@H](CC(=O)O)NC(=O)[C@H](CO)NC(=O)[C@@H](N)Cc1cnc[nH]1)C(C)C)[C@@H](C)O)[C@@H](C)O)C(C)C)C(=O)N[C@@H](CC(C)C)C(=O)N[C@@H](CC(N)=O)C(N)=O [VIP [D-Tyr22]] | 0.0295 | 0.0118 µM and 0.0282 µM and 0.0389 µM | 0.128 µM and 0.0955 µM and 0.112 µM
CC[C@H](C)[C@H](NC(=O)[C@H](CO)NC(=O)[C@H](CC(N)=O)NC(=O)[C@H](CC(C)C)NC(=O)[C@H](Cc1ccc(O)cc1)NC(=O)[C@H](CCCCN)NC(=O)[C@H](CCCCN)NC(=O)[C@H](NC(=O)[C@H](C)NC(=O)[C@H](CCSC)NC(=O)[C@H](CCC(N)=O)NC(=O)[C@H](CCCCN)NC(=O)[C@H](CCCN=C(N)N)NC(=O)[C@H](CC(C)C)NC(=O)[C@H](CCCN=C(N)N)NC(=O)[C@@H](NC(=O)[C@H](Cc1ccc(O)cc1)NC(=O)[C@H](CC(N)=O)NC(=O)[C@H](CC(=O)O)NC(=O)[C@@H](NC(=O)[C@H](Cc1ccccc1)NC(=O)[C@@H](NC(=O)[C@H](C)NC(=O)[C@H](CC(=O)O)NC(=O)[C@H](CO)NC(=O)[C@@H](N)Cc1cnc[nH]1)C(C)C)[C@@H](C)O)[C@@H](C)O)C(C)C)C(=O)N[C@@H](CC(C)C)C(=O)N[C@@H](CC(N)=O)C(N)=O [VIP [D-Val19]] | 0.0346 | 0.0063 µM and 0.0295 µM and 0.0251 µM | 0.0109 µM and 0.0692 µM and 0.0589 µM
H-HSDAVATDNYTRLRKQMAVKKYLNSILN-NH2 [VIP Ala16] | 2.75 | 0.661 µM and 1.86 µM and 2.34 µM | 0.724 µM and 1.15 µM and 0.794 µM
H-HSDAVFTDNYTRLAKQMAVKKYLNSILN-NH2 [VIP Ala14] | 0.0616 | 0.03 µM and 0.0457 µM and 0.0513 µM | 0.0246 µM and 0.174 µM and 0.111 µM
H-HSDAVFTDNYTRLRKQMAVKKALNSILN-NH2 [VIP Ala22] | 0.0085 | 0.0011 µM and 0.0032 µM and 0.0028 µM | 0.0038 µM and 0.0076 µM and 0.0071 µM
H-HSDAVFTDNYTRLRKQMAVKKYANSILN-NH2 [VIP Ala23] | 0.182 | 0.0339 µM and 0.213 µM and 0.204 µM | 0.0269 µM and 0.17 µM and 0.155 µM
H-HSDAVFTDNYTRLRKQMAVKKYLNSIAN-NH2 [VIP Ala27] | 0.0024 | 0.00059 µM and 0.0047 µM and 0.002 µM | 0.00037 µM and 0.0023 µM and 0.0025 µM

Further compounds by falling Ki [1], results first:

Ki [1] [µM] | Ki [2] | Ki [3] | Compound
0.427 | 0.0437 µM and 0.245 µM and 0.148 µM | 0.0741 µM and 0.182 µM and 0.123 µM | H-HSAAVFTDNYTRLRKQMAVKKYLNSILN-NH2 [VIP Ala3]
0.0561 | 0.0123 µM and 0.0347 µM and 0.03 µM | 0.0537 µM and 0.0617 µM and 0.0501 µM | H-HSDAVFTDNYTALRKQMAVKKYLNSILN-NH2 [VIP Ala12]
0.0095 | 0.0019 µM and 0.0093 µM and 0.01 µM | 0.0066 µM and 0.0072 µM and 0.0034 µM | H-HSDAVFTDNYTRARKQMAVKKYLNSILN-NH2 [VIP Ala13]
0.004 | 0.0016 µM and 0.005 µM and 0.0036 µM | 0.00074 µM and 0.0045 µM and 0.0039 µM | H-HSDAVFTDNYTRLRKQAAVKKYLNSILN-NH2 [VIP Ala17]
0.0032 | 0.00085 µM and 0.0028 µM and 0.0022 µM | 0.00059 µM and 0.0041 µM and 0.0021 µM | H-HSDAVFTDNYTRLRKQMAAKKYLNSILN-NH2 [VIP Ala19]
0.0032 | 0.00038 µM and 0.0021 µM and 0.00051 µM | 0.00087 µM and 0.005 µM and 0.0051 µM | H-HSDAVFTDNYTRLRKQMAVKAYLNSILN-NH2 [VIP Ala21]
0.0016 | 0.00016 µM and 0.0013 µM and 0.00049 µM | 0.00029 µM and 0.0018 µM and 0.0014 µM | H-HSDAVFTDAYTRLRKQMAVKKYLNSILN-NH2 [VIP Ala9]
